Data set [1] concerns L6 myotubes. Put plainly: [3H]-2-deoxy-D-glucose (dGlc) uptake assay in L6 myotubes. The class given is cell-based. The method, then:
The effect of the various derivatives on the rate of glucose uptake in L6 myotubes was investigated. […] The abundance of GLUT1 and GLUT4 in the plasma membranes of L6 myotubes was determined in cells expressing GLUT-1myc or GLUT-4myc, as described before. […] In addition, the effect of compounds on the glucose—stimulated insulin secretion (GSIS) was investigated.
L6 myotubes were maintained as described in [21]. All experiments were conducted on fully differentiated myotubes.
The rate of [^3H]dGlc uptake in myotubes, in the absence or presence of insulin, was determined as described in [21]. […] […] The cultures were then rinsed 3 times with PBS at room temperature and incubated with PBS, pH 7.4, containing 0.1 mM dGlc and 1.0 μCi/ml [^3H]dGlc for 5 minutes at room temperature. At the end of the assay, the myotubes were lysed in 0.1% (w/v) SDS in water and taken for liquid scintillation.

In a further data set the test system is AMPK. As to the kind of experiment: Thr172 phosphorylation of AMPK in L6 myotubes, Western blot of whole cell lysates. The class given is cell-based. The method, then:
The effect of the various derivatives on the rate of glucose uptake in L6 myotubes was investigated. […] The abundance of GLUT1 and GLUT4 in the plasma membranes of L6 myotubes was determined in cells expressing GLUT-1myc or GLUT-4myc, as described before. […] In addition, the effect of compounds on the glucose—stimulated insulin secretion (GSIS) was investigated. Whole cell lysates were prepared as previously described with some minor modifications: the lysis buffer contained 50 mM Tris-HCl, pH 7.5, 1 mM EDTA, 1 mM EGTA, 1 mM Na3VO4, 150 mM NaCl, 50 mM NaF, 10 mM sodium-glycerophosphate, 5 mM sodium pyrophosphate, and 1 mM PMSF, supplemented with 0.1% (v/v) NP-40, 0.1% (v/v) 2-β-mercaptoethanol, and protease inhibitor cocktail (1:100 dilution). The cells were washed by ice-cold PBS, and 1 ml of lysis buffer was then added and incubated at 4° C. for 40 minutes. The resulting cell lysates were centrifuged at 8,700 g×30 minutes at 4° C. and the resulting supernatant fractions were separated and kept at −20° C. until used. Protein content in the supernatant was determined according to Bradford, using a BSA standard dissolved in the same buffer. […] Samples for Western blot analyses of GLUT1 and GLUT4 were prepared as described in [22]. The proteins were separated on 10% SDS-PAGE and Western blot analyses performed using antibodies according to our previously established protocols.

The subject of a further data set is GLUT4myc. Put plainly: Colorimetric determination of surface GLUT4myc in L6 myotubes. The conditions noted are these: for abundance of GLUT4myc in the plasma membrane: 25 μM of 34, insulin. Type of data set: cell-based. The method, then:
The colorimetric detection of surface GLUT4myc or GLUT1myc in L6 myotubes was performed as described in [7]. Briefly, cultured myotubes were incubated with rabbit anti-C-Myc antibody (1:200 dilution), washed and fixed with 3% formaldehyde, and further interacted with goat HRP-conjugated anti-rabbit IgG (1:2000 dilution). Following the washes, a solution of OPD was added, and the culture plates were taken for absorbance measurement at 492 nM to estimate the relative abundance of GLUT1myc or GLUT4myc on the plasma membrane of the myotubes. The GLUT1myc and GLUT4myc L6 cell cultures were the courtesy of Dr. A. Klip, Hospital for Sick Children (Toronto, ON, Canada).
The capacity of compound 34 to increase the rate of glucose uptake by increasing GLUT4 content in the plasma membrane of myotubes was tested. […] The cells expressing GLUT1myc or GLUT4myc were treated with 25 μM of 34 or DMSO as described above. At the end of the incubation, the cultures were taken for immunodetection of surface GLUT1myc (open bars) or GLUT4myc (black bars), as described herein above.

The subject of a further data set is GLUT1. As to the kind of experiment: Total GLUT1 content in whole cell lysates of L6 myotubes, Western blot. Type of data set: cell-based. The method, then:
(§1) Whole cell lysates were prepared as previously described with some minor modifications: the lysis buffer contained 50 mM Tris-HCl, pH 7.5, 1 mM EDTA, 1 mM EGTA, 1 mM Na3VO4, 150 mM NaCl, 50 mM NaF, 10 mM sodium-glycerophosphate, 5 mM sodium pyrophosphate, and 1 mM PMSF, supplemented with 0.1% (v/v) NP-40, 0.1% (v/v) 2-β-mercaptoethanol, and protease inhibitor cocktail (1:100 dilution). The cells were washed by ice-cold PBS, and 1 ml of lysis buffer was then added and incubated at 4° C. for 40 minutes. The resulting cell lysates were centrifuged at 8,700 g×30 minutes at 4° C. and the resulting supernatant fractions were separated and kept at −20° C. until used. Protein content in the supernatant was determined according to Bradford, using a BSA standard dissolved in the same buffer. Aliquots (5-60 μg of protein) were mixed with the sample buffer [62.5 mM Tris-HCl, pH 6.8, 2% (w/v) SDS, 10% (v/v) glycerol, 50 mM DTT, and 0.01% (w/v) bromophenol blue], heated at 95° C. for 5 minutes. Samples for Western blot analyses of GLUT1 and GLUT4 were prepared as described in [22]. The proteins were separated on 10% SDS-PAGE and Western blot analyses performed using antibodies according to our previously established protocols.

Another data set relates to GLUT4. As to the kind of experiment: Total GLUT4 content in whole cell lysates of L6 myotubes, Western blot. The class given is cell-based. The method, then:
as §1

Data set [2] relates to diabetic KKAy mice. Put plainly: Blood glucose level in diabetic KKAy mice after subcutaneous injection. The class given is in vivo. The note with it: for reduction of blood glucose: 75 mg/kg s.c. twice daily in sesame oil. The source says: (§2) The effect of the various ethoxybenzo-thiazol derivatives on the blood glucose level in diabetic KKAy mice was investigated. The in vivo antihyperglycemic effect of the lead compound was investigated in hyperglycemic and hyperinsulinemic KKAy mice, an established animal model for T2DM, after subcutaneous injections. Venous blood samples from small tail clips were taken for glucose determination. Finally, to investigate the effect of the lead compound on whole body glucose disposal in the mice we performed standard IP-GTT tests following an overnight fast.
Diabetic male KKAy mice (8 to 12-week old, 20-25 g) were purchased from The Jackson Laboratory (Bar Harbor, Me.). The animals were routinely kept in 12-h light/dark cycles and provided with food and water ad libitum. Blood glucose levels at sacrifice ranged between 17-25 mmol/l. The ethics committee (IACUC) of the Hebrew University of Jerusalem approved the study protocol for animal welfare. The Hebrew University of Jerusalem is an AAALAC international accredited institution.
(§3) The antihyperglycemic potential of 34 was investigated in an animal model of diabetes. Test compound was injected subcutaneously (75 mg per kg body weight, suspension in sesame oil, twice daily) to diabetic KKAy mice; control mice received the vehicle only. The blood glucose levels at day zero, 20.8±0.9 and 22.3±1.3 mM for the control and 34-treated groups, respectively, were taken as the reference 100% values in FIG. 4A. […] It should be noted, however, that despite the marked antihyperglycemic effects of 34, normoglycemia was not reached. To better evaluate the potential of 34, the glucose tolerance of treated KKAy mice was evaluated using a standard IP-GTT. The mice were treated with 34 as described above for two days, after which IP-GTT was performed after an overnight fast, as described. […] IP-GTT was performed following an overnight fast in mice treated with 34 or oil, as described herein above. […] The cells were grown in standard RPMI1640 complete culture medium, treated with 10 μM compound 20 and incubated for the indicate time periods. At the end of incubations the cells were taken for a standard GSIS assay described herein.

Data set [3] concerns diabetic KKAy mice. Put plainly: Intraperitoneal glucose tolerance test (IP-GTT) in KKAy mice. The class given is in vivo.
Description: as §2
A standard IP-GTT test was performed on mice after an overnight fast. Glucose in saline was injected intraperitoneally (1.5 g/kg body weight). Venous blood samples from small tail clips were taken for glucose determination using a glucometer (FreeStyle Freedom, Abbott Diabetes Care, Alamada, Calif.).
as §3

Data set [4] deals with L6 myotubes. As to the kind of experiment: Cytotoxic effects in L6 myotube cultures. The class given is cell-based. The conditions noted are these: above 100 μM.

Experimental findings from US9409904B2, “Compounds and compositions for use in augmentation of glucose” (YISSUM RESEARCH DEVELOPMENT COMPANY OF THE HEBREW …, priority 2011, dated 2016) are described below.

“Also recorded” adds a separate entry of the source.

In the case of `CCOc1ccc2nc(SCc3nc4ccccc4s3)sc2c1` [Compound 34, 2-((benzothiazol-2-ylmethyl)thio)-6-ethoxybenzothiazole], in the data set with L6 myotubes [1], the “minimal effective concentration, glucose uptake” value was determined as 25 µM; the “persistence of stimulatory effect on glucose uptake” value is listed as “up to 24 hours”; the “rate of glucose uptake in L6 myotubes (result in words)” value is given as “increase; also recorded: markedly augmented”. Moreover, the “stimulatory effect on glucose uptake in the presence of wortmannin or Akt/PKB inhibitor” value with L6 myotubes [1] (100 nM wortmannin or 100 nM Akt/PKB inhibitor added 30 min before) is “PI3K- and Akt/PKB-independent manner; also recorded: remained unaltered”. In addition, the “increase of rate of glucose uptake, combined effect with insulin” value with L6 myotubes [1] (25 μM of 34 (5 hours) plus insulin 100 nM (last 20 minutes)) is given as 148%±29%. Further, the “increase of rate of glucose uptake” value in the data set with L6 myotubes [1] (25 μM of 34, last 5 hours, serum free, 23.0 mM D-glucose, without insulin) was 75%±17%. In addition, the “increase of rate of glucose uptake” value with L6 myotubes [1] (under similar experimental conditions (5 hours)) came out at 2.5 fold. Also, in the data set on AMPK (incubation time), the “time to significant Thr172 phosphorylation of AMPK” value was no more than 1 h. Also, in the data set on GLUT4myc, the “period required to exert action on GLUT4myc translocation” value was 5 h and the “abundance of GLUT4myc in the plasma membrane” value was “induces GLUT-4; also recorded: increased”. The “total content of GLUT1 in myotubes” value in the data set on GLUT1 was “Neither compound altered”. Besides, the “total content of GLUT4 in myotubes” value in the data set with GLUT4 was “Neither compound altered”. Further, the normoglycemia entry in the data set on diabetic KKAy mice [2] (75 mg/kg s.c. twice daily) was “not reached”. The “reduction of blood glucose” value in the data set with diabetic KKAy mice [2] (day 1) is roughly 30%. The “reduction of blood glucose” value with diabetic KKAy mice [2] (day 2) is reported as roughly 45%. Also, the “reduction of blood glucose” value in the data set on diabetic KKAy mice [2] (day 3) is roughly 50%. For the same molecule, the “glucose tolerance (result in words)” value in the data set on diabetic KKAy mice [3] (75 mg/kg s.c. twice daily, two days) is listed as “improved glucose tolerance; also recorded: significantly improved”. Besides, the “IP-GTT area under the curve (AUC)” value in the data set on diabetic KKAy mice [3] (two days of treatment, overnight fast, glucose 1.5 g/kg i.p.) turned out to be 753.6±142.2 mmol glucose/l/min. The “improvement of total body glucose clearance” value in the data set on diabetic KKAy mice [3] (two-day treatment) is 40%-50%.

Consider “insulin: Human insulin (Actrapid) purchased from Novo Nordisk [reference compound]”, for which the “increase of rate of glucose uptake” value with L6 myotubes [1] (insulin 100 nM, last 20 minutes of incubation) is on record as 45%±13%. For the same molecule, in the data set on GLUT4myc, the “time of effect on GLUT4myc translocation to the plasma membrane” value is 30 min and the “abundance of GLUT4myc in the plasma membrane” value is “increased”. Also, the “total content of GLUT1 in myotubes” value in the data set with GLUT1 is on record as “Neither compound altered”. In addition, the “total content of GLUT4 in myotubes” value in the data set on GLUT4 is “Neither compound altered”.

On to `CCC1SC(N)=NC1=O` (stereo not drawn) [Compound 3, 2-amino-5-ethylthiazol-4(5H)-one], for which, in the data set on L6 myotubes [1], the “rate of glucose uptake in L6 myotubes (result in words)” value was “increase; also recorded: augmented”. Also, in the data set with L6 myotubes [1] (100 μM), the “time of maximal glucose uptake stimulatory effect” value is no more than 5 h. Moreover, the “rate of glucose uptake compared to vehicle (DMSO) treated control” value with L6 myotubes [1] (100 μM, basal rate = 100%) is recorded as 131.4%±6.8%. Moreover, the activity at 100 µM in the data set with L6 myotubes [1] (Rattus norvegicus, L6, 100 μM, Mean ± SD (n = 3), Table 1, read-out: Effect on glucose uptake [100 μM] in L6 myotubes (%)) was 131 ± 6.8%. Moreover, the “maximal effective concentration, glucose uptake” value with L6 myotubes [1] (dose response, 5 h (3) or 12 h (4, 15)) amounted to 100 µM. The “time of return of Thr172 phosphorylation to the basal hypo-phosphorylated level” value in the data set with AMPK (100 μM) is 3 h. The “Thr172 phosphorylation in AMPK / AMPK activation (result in words)” value with AMPK (L6 myotubes) is “increased”. Moreover, in the data set on AMPK (incubation time), the “time of maximal (peak) Thr172 phosphorylation in AMPK” value turned out to be 40 min. The cytotoxic effects result with L6 myotubes [4] is listed as “cytotoxic effects”.
